Values joined by “and” are separate entries in the source; they are usually repeats but may differ in a detail not shown here. Identical values can stand only once.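 All cell lines were grown in 96-well plates and treated with compound for 48 hours. The concentration for 50% growth inhibition is given as GI50. TGI denotes the concentration required for complete inhibition of growth.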
How the values were obtained:
Assay in all cases: growth of human tumour cells (NCI), 48 h
T-47D breast = system: T-47D breast
COLO 205 colon = system: COLO 205 colon
NCI/ADR-RES ovarian = system: NCI/ADR-RES ovarian
SF-539 CNS = system: SF-539 CNS
MDA-MB-231 breast = system: MDA-MB-231 breast
OVCAR-8 ovarian = system: OVCAR-8 ovarian
UACC-62 melanoma = system: UACC-62 melanoma
786-0 renal = system: 786-0 renal
IGROV1 ovarian = system: IGROV1 ovarian
EKVX NSCLC = system: EKVX NSCLC

Compound | GI50 (T-47D breast) | TGI (T-47D breast) | GI50 (COLO 205 colon) | GI50 (NCI/ADR-RES ovarian) | TGI (NCI/ADR-RES ovarian) | GI50 (SF-539 CNS) | TGI (SF-539 CNS) | GI50 (MDA-MB-231 breast) | TGI (MDA-MB-231 breast) | GI50 (OVCAR-8 ovarian) | TGI (OVCAR-8 ovarian) | GI50 (UACC-62 melanoma) | TGI (UACC-62 melanoma) | GI50 (786-0 renal) | TGI (786-0 renal) | GI50 (IGROV1 ovarian) | TGI (IGROV1 ovarian) | TGI (COLO 205 colon) | GI50 (EKVX NSCLC) | TGI (EKVX NSCLC)
CON(C)C(=O)N1N=C(c2cc(F)ccc2F)SC1(CCCN)c1ccccc1 (centres undefined) | 0.0279 µM and < 0.01 µM | 18.7 µM and 18.2 µM | < 0.01 µM | 0.544 µM and 0.122 µM | 5.34 µM and 2.87 µM | 0.027 µM | 0.351 µM | < 0.01 µM | 0.039 µM | 0.0266 µM and < 0.01 µM | 18.9 µM and 19.8 µM | 0.0618 µM and < 0.01 µM | 18.8 µM and 16.2 µM | 0.0574 µM and < 0.01 µM | 18.1 µM and 18.5 µM | 6.28 µM and 4.85 µM | 32.2 µM and 27.5 µM | – | – | –
C=C1C(=O)O[C@H]2[C@H]1CC/C(COC(=O)c1cc3ccccc3s1)=C\CC[C@@]1(C)O[C@@H]21 | – | – | 1.71 µM | 2.14 µM | 6.63 µM | 1.6 µM | 3.34 µM | 1.97 µM | 4.35 µM | 1.8 µM | 5.14 µM | 1.85 µM | 3.79 µM | 1.52 µM | 3.44 µM | 1.76 µM | 3.58 µM | 3.48 µM | 1.69 µM | 3.19 µM
CC(C)N1CN(C(C(=O)N[C@@H]2C(=O)N3C2SC(C)(C)C3C(=O)O)c2ccccc2)CSC1=S (some centres undefined) | – | – | – | – | – | – | > 100 µM | – | – | – | > 100 µM | – | > 100 µM | – | > 100 µM | – | > 100 µM | > 100 µM | – | > 100 µM
CC(C)c1cc2c(O)c(c1)Cc1cc(C(C)C)cc(c1O)Cc1cc(C(C)C)cc(c1O)Cc1cc(C(C)C)cc(c1O)C2 | – | – | – | – | – | – | > 100 µM | – | – | – | > 100 µM | – | > 100 µM | – | > 100 µM | – | > 100 µM | > 100 µM | – | > 100 µM
COc1ccc(/C=C\c2cc(OC)c(OC)c(OC)c2)cc1OC(=O)NCCN(C)C | – | – | 0.187 µM | – | – | – | 0.00328 µM | – | 0.023 µM | – | 0.638 µM | – | > 25.7 µM | – | > 34.8 µM | 0.00139 µM | > 100 µM | 4.69 µM | – | > 58.7 µM
CCCCOC(=O)NC(=O)c1cn(C2CCCCC2)c(=O)[nH]c1=O | – | – | – | – | – | – | 37.9 µM | – | – | – | > 100 µM | – | > 100 µM | – | 40.1 µM | – | > 100 µM | > 100 µM | – | > 100 µM
COc1cc2c(c(OC)c1)C1(CC(CC#N)C2)SCCS1 (centres undefined) | – | – | – | – | – | – | > 100 µM | – | – | – | > 100 µM | – | > 100 µM | – | > 100 µM | – | > 100 µM | > 100 µM | – | –
CCOC(=O)CCn1[nH]c(=O)c(Cl)c(Cl)c1=O | – | – | – | – | – | – | – | – | – | – | > 100 µM | – | > 100 µM | – | > 100 µM | – | > 100 µM | > 100 µM | – | > 100 µM
O=C1OC(c2ccco2)=N/C1=C\c1cccc([N+](=O)[O-])c1 | – | > 100 µM | – | – | – | – | > 100 µM | – | > 100 µM | – | > 100 µM | – | > 100 µM | – | > 100 µM | – | > 100 µM | > 100 µM | – | > 100 µM
COc1ccc(CNc2nc3cc(C(F)(F)F)ccc3nc2C)cc1OC | – | – | – | – | – | – | > 100 µM | – | – | – | > 100 µM | – | > 100 µM | – | 58.9 µM | – | > 100 µM | > 100 µM | – | 72.6 µM

— PubChem BioAssay (NCI)
